Laboratory results reported in patent US20220089575A1, “FARNESOID X RECEPTOR AGONISTS AND USES THEREOF” (Metacrine, Inc., priority 2017, published 2022).

Biological target: T1, hFXR (Homo sapiens, UniProt Q96RI1)
T1 construct: expressed in transfected cells; host or cells: CV-1 cells
T1 sequence (Q96RI1 1-486): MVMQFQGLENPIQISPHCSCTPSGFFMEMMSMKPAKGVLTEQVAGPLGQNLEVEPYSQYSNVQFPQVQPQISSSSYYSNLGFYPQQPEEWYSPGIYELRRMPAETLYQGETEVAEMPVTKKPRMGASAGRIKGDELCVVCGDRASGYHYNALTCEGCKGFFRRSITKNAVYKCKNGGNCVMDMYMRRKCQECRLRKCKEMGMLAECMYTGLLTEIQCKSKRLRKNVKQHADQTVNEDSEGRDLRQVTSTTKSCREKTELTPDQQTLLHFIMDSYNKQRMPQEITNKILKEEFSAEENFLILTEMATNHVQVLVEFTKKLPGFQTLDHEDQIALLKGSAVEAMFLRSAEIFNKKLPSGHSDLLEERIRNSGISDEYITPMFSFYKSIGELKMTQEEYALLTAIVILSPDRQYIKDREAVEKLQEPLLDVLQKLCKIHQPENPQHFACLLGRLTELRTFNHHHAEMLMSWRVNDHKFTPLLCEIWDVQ
T1 sequence (P19793 1-462 partner): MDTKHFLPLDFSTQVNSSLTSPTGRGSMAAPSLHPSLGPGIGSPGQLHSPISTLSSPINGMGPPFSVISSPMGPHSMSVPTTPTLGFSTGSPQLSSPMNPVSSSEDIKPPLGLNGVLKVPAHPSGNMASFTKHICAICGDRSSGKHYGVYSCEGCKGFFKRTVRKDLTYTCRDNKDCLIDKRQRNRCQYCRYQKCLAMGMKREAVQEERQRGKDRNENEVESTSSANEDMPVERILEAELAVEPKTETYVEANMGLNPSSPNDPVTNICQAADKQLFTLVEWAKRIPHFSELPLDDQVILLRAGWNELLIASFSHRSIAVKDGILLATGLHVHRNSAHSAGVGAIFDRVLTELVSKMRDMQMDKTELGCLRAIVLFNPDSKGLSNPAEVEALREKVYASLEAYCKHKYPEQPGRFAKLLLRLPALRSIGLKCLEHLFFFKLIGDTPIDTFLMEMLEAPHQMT
Assay: In Vitro FXR Assay (TK): TK-ECRE-luc reporter in transfected CV-1 cells
Format: cell-based
Settings: 18 hrs, luminescence, maximum efficacy of <25% of the Fexarmine control classified as '+'
In short: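 Transiently transfected monkey CV-1 cells (hFXR, hRXR, TK-ECRE-luciferase, YFP control plasmid), held in stripped-serum DMEM, received compound dilutions from DMSO for 18 h at 37 °C. Activity was taken from luminescence of the cell lysates.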

Row | EC50 [nM] | Compound
1 | ≤ 250 | COc1ccc([C@H]2CC[C@H](CN(c3cccc(-c4cnn(C(C)C)c4)c3)C(=O)[C@H]3CC[C@H](OC(=O)N4CC(O)C4)CC3)CC2)nc1C#N [Compound 7.43, trans-4-(((trans-4-(6-Cyano-5-methoxypyridin-2-yl)cyclohexyl)methyl)(3-(1-isopropyl-1H-pyrazol-4-yl)phenyl)carbamoyl)cyclohexyl 3-hydroxyazetidine-1-carboxylate]
2 | ≤ 250 | COc1ccc([C@H]2CC[C@H](CN(c3cc(-c4coc(C5CC5)n4)ccn3)C(=O)[C@H]3CC[C@H](OC(=O)N(C)CC(C)(C)O)CC3)CC2)nc1C [Compound 6.86, trans-4-((4-(2-Cyclopropyloxazol-4-yl)pyridin-2-yl)((trans-4-(5-methoxy-6-methylpyridin-2-yl)cyclohexyl)methyl)carbamoyl)cyclohexyl (2-hydroxy-2-methylpropyl)(methyl)carbamate]
3 | ≥ 1000 | COc1ccc([C@H]2CC[C@H](CN(c3cc(-c4cnn(C5CC5)c4)ccn3)C(=O)[C@H]3CC[C@H](C(=O)O)CC3)CC2)nc1C [Compound 17.21, trans-4-((4-(1-Cyclopropyl-1H-pyrazol-4-yl)pyridin-2-yl)((trans-4-(5-methoxy-6-methylpyridin-2-yl)cyclohexyl)methyl)carbamoyl) cyclohexanecarboxylic acid]
4 | ≤ 250 | CN(C)c1ccc([C@H]2CC[C@H](CN(c3cccc(-c4cnn(C5CC5)c4)c3)C(=O)[C@H]3CC[C@H](OC(=O)NCCO)CC3)CC2)cn1 [Compound 6.08, trans-4-((3-(1-Cyclopropyl-1H-pyrazol-4-yl)phenyl)((trans-4-(6-(dimethylamino)pyridin-3-yl)cyclohexyl)methyl)carbamoyl)cyclohexyl (2-hydroxyethyl)carbamate]
5 | ≤ 250 | COc1ccc([C@H]2CC[C@H](CN(c3cccc(-c4cnn(C5CC5)c4)c3)C(=O)[C@H]3CC[C@H](OC(=O)N4CCC4)CC3)CC2)cc1C [Compound 7.31, trans-4-((3-(1-Cyclopropyl-1H-pyrazol-4-yl)phenyl)((trans-4-(4-methoxy-3-methylphenyl)cyclohexyl)methyl)carbamoyl)cyclohexyl azetidine-1-carboxylate]
6 | ≤ 250 | COc1ccc([C@H]2CC[C@H](CN(c3cccc(-c4cnn(C5CC5)c4)c3)C(=O)[C@H]3CC[C@H](OC(=O)NC4CNC4)CC3)CC2)cc1C [Compound 4.18, trans-4-((3-(1-Cyclopropyl-1H-pyrazol-4-yl)phenyl)((trans-4-(4-methoxy-3-methylphenyl)cyclohexyl)methyl)carbamoyl)cyclohexyl azetidin-3-ylcarbamate]
7 | ≤ 250 | COc1ccc([C@H]2CC[C@H](CN(c3cccc(-c4cnn(C(C)C)c4)c3)C(=O)[C@H]3CC[C@H](OC(=O)NCCO)CC3)CC2)cc1C#N [Compound 6.20, trans-4-(((trans-4-(3-Cyano-4-methoxyphenyl)cyclohexyl)methyl)(3-(1-isopropyl-1H-pyrazol-4-yl)phenyl)carbamoyl)cyclohexyl (2-hydroxyethyl)carbamate]
8 | ≤ 250 | COc1ccc([C@H]2CC[C@H](CN(c3cc(-c4coc(C5CC5)n4)ccn3)C(=O)[C@H]3CC[C@H](OC(=O)N4CC(O)C4)CC3)CC2)nc1C#N [Compound 7.72, trans-4-(((trans-4-(6-Cyano-5-methoxypyridin-2-yl)cyclohexyl)methyl)(4-(2-cyclopropyloxazol-4-yl)pyridine-2-yl)carbamoyl)cyclohexyl 3-hydroxyazetidine-1-carboxylate]
9 | ≤ 250 | CNC(=O)O[C@H]1CC[C@H](C(=O)N(C[C@H]2CC[C@H](c3ccc(OC)c(C#N)n3)CC2)c2cccc(-c3cnn(C(C)C)c3)c2)CC1 [Compound 5.28, trans-4-(((trans-4-(6-Cyano-5-methoxypyridin-2-yl)cyclohexyl)methyl)(3-(1-isopropyl-1H-pyrazol-4-yl)phenyl)carbamoyl)cyclohexyl methylcarbamate]
10 | ≤ 250 | COc1ccc(C23CCC(CN(c4cc(-c5cnn(C6CC6)c5)ccn4)C(=O)[C@H]4CC[C@H](CC(=O)O)CC4)(CC2)CC3)cc1C [Compound 20.08, trans-2-(4-((4-(1-Cyclopropyl-1H-pyrazol-4-yl)pyridin-2-yl)((4-(4-methoxy-3-methylphenyl)bicyclo [2.2.2]octan-1-yl)methyl)carbamoyl)cyclohexyl)acetic acid]
11 | ≤ 250 | COc1ccc([C@H]2CC[C@H](CN(c3cc(-c4cnc(C5CC5)s4)ccn3)C(=O)[C@H]3CC[C@H](OC(=O)N4CC(O)C4)CC3)CC2)cc1C#N [Compound 7.08, trans-4-(((trans-4-(3-Cyano-4-methoxyphenyl)cyclohexyl)methyl)(4-(2-cyclopropylthiazol-5-yl)pyridin-2-yl)carbamoyl)cyclohexyl 3-hydroxyazetidine-1-carboxylate]
12 | ≤ 250 | COc1ccc([C@H]2CC[C@H](CN(c3cc(-c4cnn(C(C)C)c4)ccn3)C(=O)[C@H]3CC[C@H](OC(=O)N4CC(N(C)C)C4)CC3)CC2)nc1C [Compound 7.58, trans-4-((4-(1-Isopropyl-1H-pyrazol-4-yl)pyridin-2-yl)((trans-4-(5-methoxy-6-methylpyridin-2-yl)cyclohexyl)methyl)carbamoyl)cyclohexyl 3-(dimethylamino)azetidine-1-carboxylate]
13 | ≤ 250 | COc1ncc([C@H]2CC[C@H](CN(c3cc(-c4coc(C5CC5)n4)ccn3)C(=O)[C@H]3CC[C@H](OC(=O)N4CC(N(C)C)C4)CC3)CC2)cc1C [Compound 7.92, trans-4-((4-(2-Cyclopropyloxazol-4-yl)pyridine-2-yl)((trans-4-(6-methoxy-5-methylpyridin-3-yl)cyclohexyl)methyl)carbamoyl)cyclohexyl 3-(dimethylamino)azetidine-1-carboxylate]
14 | ≤ 250 | COc1ccc([C@H]2CC[C@H](CN(c3cc(-c4cnn(C(C)C)c4)ccn3)C(=O)[C@H]3CC[C@H](OC(=O)N4CCC4)CC3)CC2)cc1C#N [Compound 7.46, trans-4-(((trans-4-(3-Cyano-4-methoxyphenyl)cyclohexyl)methyl)(4-(1-isopropyl-1H-pyrazol-4-yl)pyridin-2-yl)carbamoyl)cyclohexyl azetidine-1-carboxylate]
15 | ≤ 250 | CCN(CCO)C(=O)O[C@H]1CC[C@H](C(=O)N(C[C@H]2CC[C@H](c3ccc(OC)c(C)n3)CC2)c2cc(-c3coc(C4CC4)n3)ccn2)CC1 [Compound 6.74, trans-4-((4-(2-Cyclopropyloxazol-4-yl)pyridin-2-yl)((trans-4-(5-methoxy-6-methylpyridin-2-yl)cyclohexyl)methyl)carbamoyl)cyclohexyl ethyl(2-hydroxyethyl)carbamate]
16 | ≤ 250 | COc1ccc([C@H]2CC[C@H](CN(c3cccc(-c4coc(C(C)C)n4)c3)C(=O)[C@H]3CC[C@H](OC(=O)N4CC(O)C4)CC3)CC2)nc1C [Compound 7.65, trans-4-((3-(2-Isopropyloxazol-4-yl)phenyl)((trans-4-(5-methoxy-6-methylpyridin-2-yl)cyclohexyl)methyl)carbamoyl)cyclohexyl 3-hydroxyazetidine-1-carboxylate]
